Assay results as given in US8518952B2, “6 substituted 2-heterocyclylamino pyrazine compounds as CHK-1 inhibitors” (Pfizer Inc., priority 2008, dated 2013).
Like-named read-outs stand apart in the source and are kept apart here.

Key:
[1] = target: T1, CHK1 (kinase domain) (Homo sapiens, UniProt O14757); assay: CHK1 Ki determination, spectrophotometric coupled (pyruvate kinase/lactate dehydrogenase) assay; format: biochemical; details: CHK-1 kinase domain; for Ki: 150 uM ATP, 125 uM Syntide 2
T1 construct: a solution containing 1 nM of CHK1 (kinase domain)
T1 sequence (O14757 9-265 limits assumed): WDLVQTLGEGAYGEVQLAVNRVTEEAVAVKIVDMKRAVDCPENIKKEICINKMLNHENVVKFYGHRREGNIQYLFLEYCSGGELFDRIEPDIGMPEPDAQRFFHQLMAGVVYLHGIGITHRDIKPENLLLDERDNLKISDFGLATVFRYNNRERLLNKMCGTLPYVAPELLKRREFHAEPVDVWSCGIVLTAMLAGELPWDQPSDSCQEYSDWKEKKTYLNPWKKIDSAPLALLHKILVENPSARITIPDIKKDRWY
In short: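 Ki values, or % inhibition where no Ki was obtained, come from a tight-binding fit that uses active enzyme concentration and the ATP Km. Rates were followed as NADH loss at 340 nm, with ADP production coupled via pyruvate kinase and lactate dehydrogenase. Reactions with ATP (150 uM) and Syntide 2 (125 uM) were started after the CHK1 kinase domain had stood with inhibitor for 15 min.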

[2] = test system: HeLa cells; assay: Histone H3 (Ser10) phosphorylation ELISA, abrogation of camptothecin-induced G2 arrest (CHK-1 cellular assay); format: cell-based; details: HeLa cells, camptothecin 8 hrs, then compound with nocodozole 16 hours, read-out: EC50
Protocol: The Histone H3 phosphorylation ELISA assay detects cells entering mitosis and represents the primary in vitro cell-based assay used to measure the cellular potency of compounds in abrogating the G2 check point induced by DNA damage in HeLa cells or MiaPaCa cells. The candidate substances were assayed for potency in their ability to inhibit camptothecin-induced G2 arrest, as measured by an increase in Histone H3 phosphorylation on Ser10, a marker of entry into mitosis.
Tissue culture plates were seeded with HeLa cells or MiaPaCa Cells and allowed to attach overnight. The cells were then treated with camptothecin to induce DNA damage for 8 hrs. Candidate substances or diluent were then added in the presence of nocodozole for 16 hours. […] The fresh whole cell lysates were then thawed and added to the ELISA plate with shaking for 3 hours. Between all subsequent steps plates were washed 4 times with PBST. Biotinylated phospho Histone H3 (ser10) detection antibody was added for 1 hour, followed by addition of horseradish peroxidase-linked streptavidin secondary antibody for 1 hour. Color development of the antibody was performed with addition of TMB substrate and incubation for 2 minutes on a plate shaker. […] EC50 values were calculated by sigmoid curve fitting using a four-parameter analysis.
Under the “Ki” column, data entries in the format of “%” are percent inhibition data where no Ki data is available. Data entry under the “EC50” column with an * are data obtained using Mia Paca-2 cells rather than HeLa cells. Data is not available where noted as n/a.

Ki [1] [nM]	EC50 ([2]; Homo sapiens, HeLa) [nM]	EC50 [2] [nM]	percent inhibition (where no Ki data is available) ([1]; inhibitor concentration not given) [%^]	SMILES
80	507			FC[C@@H]1C[C@@H](Nc2cncc(-c3cnc4ccccn34)n2)CN1 [Example 67, N-[(3R,5S)-5-(fluoromethyl)pyrrolidin-3-yl]-6-imidazo[1,2-a]pyridin-3-ylpyrazin-2-amine]
37.1	3560			FC[C@@H]1C[C@@H](Nc2cncc(-c3cnc4cc(C(F)(F)F)ccn34)n2)CN1 [Example 78, N-[(3R,5S)-5-(fluoromethyl)pyrrolidin-3-yl]-6-[7-(trifluoromethyl)imidazo[1,2-a]pyridin-3-yl]pyrazin-2-amine]
5.68	184			FC[C@@H]1C[C@@H](Nc2cncc(-c3cnn4cc(Cl)ccc34)n2)CN1 [Example 79, 6-(6-chloropyrazolo[1,5-a]pyridin-3-yl)-N-[(3R,5S)-5-(fluoromethyl)pyrrolidin-3-yl]pyrazin-2-amine]
90.7	≥ 10000			C[C@@H]1CC[C@@H](Nc2cncc(-c3cnc4ccc(F)cn34)n2)CN1 [Example 88, 6-(6-fluoroimidazo[1,2-a]pyridin-3-yl)-N-[(3R,6R)-6-methylpiperidin-3-yl]pyrazin-2-amine]
261	≥ 10000			FC(F)[C@@H]1C[C@@H](Nc2cncc(-c3cnc4cc(C(F)(F)F)ccn34)n2)CN1 [Example 89, N-[(3R,5S)-5-(difluoromethyl)pyrrolidin-3-yl]-6-[7-(trifluoromethyl)imidazo[1,2-a]pyridin-3-yl]pyrazin-2-amine]
70.5	≥ 10000			Fc1ccc2ncc(-c3cncc(N[C@H]4CNC[C@H]4F)n3)n2c1 [Example 90, 6-(6-fluoroimidazo[1,2-a]pyridin-3-yl)-N-[(3S,4R)-4-fluoropyrrolidin-3-yl]pyrazin-2-amine]
18.7	497			Fc1ccc2ncc(-c3cncc(N[C@@H]4CCNC4)n3)n2c1 [Example 91, 6-(6-fluoroimidazo[1,2-a]pyridin-3-yl)-N-[(3R)-pyrrolidin-3-yl]pyrazin-2-amine]
87.5	≥ 10000			Fc1ccc2ncc(-c3cncc(N[C@H]4CNC[C@@H]4F)n3)n2c1 [Example 92, 6-(6-fluoroimidazo[1,2-a]pyridin-3-yl)-N-[(3S,4S)-4-fluoropyrrolidin-3-yl]pyrazin-2-amine]
89	3330			C[C@H]1CC[C@@H](Nc2cncc(-c3cnc4ccc(F)cn34)n2)CN1 [Example 93, 6-(6-fluoroimidazo[1,2-a]pyridin-3-yl)-N-[(3R,6S)-6-methylpiperidin-3-yl]pyrazin-2-amine]
20.6		370		C[C@H]1NCCC[C@H]1Nc1cncc(-c2cnc3ccc(F)cn23)n1 [Example 94, 6-(6-fluoroimidazo[1,2-a]pyridin-3-yl)-N-[(2R,3R)-2-methylpiperidin-3-yl]pyrazin-2-amine]
2.7	24.3			Cc1cn2c(-c3cncc(N[C@@H]4CCCN[C@@H]4C)n3)cnc2s1 [Example 96, 6-(2-methylimidazo[2,1-b][1,3]thiazol-5-yl)-N-[(2R,3R)-2-methylpiperidin-3-yl]pyrazin-2-amine]
8.62		151		Cc1cn2c(-c3cncc(N[C@@H]4CCCN[C@H]4C)n3)cnc2s1 [Example 97, 6-(2-methylimidazo[2,1-b][1,3]thiazol-5-yl)-N-[(2S,3R)-2-methylpiperidin-3-yl]pyrazin-2-amine]
1000	≥ 10000			CC1(Nc2cncc(-c3cnc4n3CCCC4)n2)CCNC1 (stereo not shown) [Example 98, N-(3-methylpyrrolidin-3-yl)-6-(5,6,7,8-tetrahydroimidazo[1,2-a]pyridin-3-yl)pyrazin-2-amine]
28.4	≥ 10000			CC1(Nc2cncc(-c3cnc4ccccn34)n2)CCNC1 (stereo not shown) [Example 99, 6-imidazo[1,2-a]pyridin-3-yl-N-(3-methylpyrrolidin-3-yl)pyrazin-2-amine]
14.6	3530			FC(F)[C@@H]1C[C@@H](Nc2cncc(-c3cnn4cc(Cl)ccc34)n2)CN1 [Example 100, 6-(6-chloropyrazolo[1,5-a]pyridin-3-yl)-N-[(3R,5S)-5-(difluoromethyl)pyrrolidin-3-yl]pyrazin-2-amine]
55.4	≥ 10000			C[C@@H]1NCCC[C@H]1Nc1cncc(-c2cnc3ccccn23)n1 [Example 101, 6-imidazo[1,2-a]pyridin-3-yl-N-[(2S,3R)-2-methylpiperidin-3-yl]pyrazin-2-amine]
3.1	≥ 10000			C[C@H]1NCCC[C@H]1Nc1cncc(-c2cnc3cc(Cl)ccn23)n1 [Example 102, 6-(7-chloroimidazo[1,2-a]pyridin-3-yl)-N-[(2R,3R)-2-methylpiperidin-3-yl]pyrazin-2-amine]
26.5	69.6			CCc1cn2c(-c3cncc(N[C@@H]4CC[C@H](C)NC4)n3)cnc2s1 [Example 103, 6-(2-ethylimidazo[2,1-b][1,3]thiazol-5-yl)-N-[(3R,6S)-6-methylpiperidin-3-yl]pyrazin-2-amine]
36.4	≥ 10000			C[C@@H]1NCCC[C@H]1Nc1cncc(-c2cnc3cc(Cl)ccn23)n1 [Example 104, 6-(7-chloroimidazo[1,2-a]pyridin-3-yl)-N-[(2S,3R)-2-methylpiperidin-3-yl]pyrazin-2-amine]
21.8	271			CCc1cn2c(-c3cncc(N[C@@H]4CC[C@@H](C)NC4)n3)cnc2s1 [Example 106, 6-(2-ethylimidazo[2,1-b][1,3]thiazol-5-yl)-N-[(3R,6R)-6-methylpiperidin-3-yl]pyrazin-2-amine]
2.85	31.6			CCc1cn2c(-c3cncc(N[C@@H]4CCCNC4)n3)cnc2s1 [Example 107, 6-(2-ethylimidazo[2,1-b][1,3]thiazol-5-yl)-N-[(3R)-piperidin-3-yl]pyrazin-2-amine]
10.2		47		CCc1cn2c(-c3cncc(N[C@@H]4CCCN[C@@H]4C)n3)cnc2s1 [Example 108, 6-(2-ethylimidazo[2,1-b][1,3]thiazol-5-yl)-N-[(2R,3R)-2-methylpiperidin-3-yl]pyrazin-2-amine]
28.4		190		CCc1cn2c(-c3cncc(N[C@@H]4CCCN[C@H]4C)n3)cnc2s1 [Example 109, 6-(2-ethylimidazo[2,1-b][1,3]thiazol-5-yl)-N-[(2S,3R)-2-methylpiperidin-3-yl]pyrazin-2-amine]
3.63		22.4		CC(C)c1cn2c(-c3cncc(N[C@@H]4CCCN[C@@H]4C)n3)cnc2s1 [Example 111, 6-(2-isopropylimidazo[2,1-b][1,3]thiazol-5-yl)-N-[(2R,3R)-2-methylpiperidin-3-yl]pyrazin-2-amine]
12.7	1110			CC(C)c1cn2c(-c3cncc(N[C@@H]4CCCN[C@H]4C)n3)cnc2s1 [Example 112, 6-(2-isopropylimidazo[2,1-b][1,3]thiazol-5-yl)-N-[(2S,3R)-2-methylpiperidin-3-yl]pyrazin-2-amine]
	103		95.5	Clc1ccc2c(-c3cncc(N[C@@H]4CCNC4)n3)cnn2c1 [Example 113, 6-(6-chloropyrazolo[1,5-a]pyridin-3-yl)-N-[(3R)-pyrrolidin-3-yl]pyrazin-2-amine]
